Columns and labels:
[1] = molecular target: T1, Ypk9 (Thermochaetoides thermophila, UniProt G0S7G9); experiment: ATPase activity, malachite green phosphate release; format: biochemical; settings: 5 mM MgCl2, pH 7.0, 37 °C
T1 construct: gene CTHT_0028100; full length, introns removed; N- or C-terminal TEV-G4S-GFP-His10 fusion, made in S. cerevisiae PAP1500; purified in DDM/CHS (ATPase assay) or reconstituted in nanodiscs (cryo-EM)

[2] = molecular target: T1, Ypk9; experiment: ATPase activity, malachite green phosphate release; format: biochemical; settings: 6 mM SPM, 1 mM ATP, 5 mM MgCl2, 100 mM KCl, pH 7.0, 37 °C, DDM/CHS
[3] = molecular target: T1, Ypk9; experiment: cryo-EM structure (E2.Pi-SPM […] Å; E2.Pi-AlF/SPM […] Å; E2P* […] Å); format: binding; settings: 1 mM SPM with 1 mM MgCl2, AlF or BeF3−; nanodiscs; luminal cleft between TM2, 4 and 6

T1 sequence (G0S7G9 entry or part of it): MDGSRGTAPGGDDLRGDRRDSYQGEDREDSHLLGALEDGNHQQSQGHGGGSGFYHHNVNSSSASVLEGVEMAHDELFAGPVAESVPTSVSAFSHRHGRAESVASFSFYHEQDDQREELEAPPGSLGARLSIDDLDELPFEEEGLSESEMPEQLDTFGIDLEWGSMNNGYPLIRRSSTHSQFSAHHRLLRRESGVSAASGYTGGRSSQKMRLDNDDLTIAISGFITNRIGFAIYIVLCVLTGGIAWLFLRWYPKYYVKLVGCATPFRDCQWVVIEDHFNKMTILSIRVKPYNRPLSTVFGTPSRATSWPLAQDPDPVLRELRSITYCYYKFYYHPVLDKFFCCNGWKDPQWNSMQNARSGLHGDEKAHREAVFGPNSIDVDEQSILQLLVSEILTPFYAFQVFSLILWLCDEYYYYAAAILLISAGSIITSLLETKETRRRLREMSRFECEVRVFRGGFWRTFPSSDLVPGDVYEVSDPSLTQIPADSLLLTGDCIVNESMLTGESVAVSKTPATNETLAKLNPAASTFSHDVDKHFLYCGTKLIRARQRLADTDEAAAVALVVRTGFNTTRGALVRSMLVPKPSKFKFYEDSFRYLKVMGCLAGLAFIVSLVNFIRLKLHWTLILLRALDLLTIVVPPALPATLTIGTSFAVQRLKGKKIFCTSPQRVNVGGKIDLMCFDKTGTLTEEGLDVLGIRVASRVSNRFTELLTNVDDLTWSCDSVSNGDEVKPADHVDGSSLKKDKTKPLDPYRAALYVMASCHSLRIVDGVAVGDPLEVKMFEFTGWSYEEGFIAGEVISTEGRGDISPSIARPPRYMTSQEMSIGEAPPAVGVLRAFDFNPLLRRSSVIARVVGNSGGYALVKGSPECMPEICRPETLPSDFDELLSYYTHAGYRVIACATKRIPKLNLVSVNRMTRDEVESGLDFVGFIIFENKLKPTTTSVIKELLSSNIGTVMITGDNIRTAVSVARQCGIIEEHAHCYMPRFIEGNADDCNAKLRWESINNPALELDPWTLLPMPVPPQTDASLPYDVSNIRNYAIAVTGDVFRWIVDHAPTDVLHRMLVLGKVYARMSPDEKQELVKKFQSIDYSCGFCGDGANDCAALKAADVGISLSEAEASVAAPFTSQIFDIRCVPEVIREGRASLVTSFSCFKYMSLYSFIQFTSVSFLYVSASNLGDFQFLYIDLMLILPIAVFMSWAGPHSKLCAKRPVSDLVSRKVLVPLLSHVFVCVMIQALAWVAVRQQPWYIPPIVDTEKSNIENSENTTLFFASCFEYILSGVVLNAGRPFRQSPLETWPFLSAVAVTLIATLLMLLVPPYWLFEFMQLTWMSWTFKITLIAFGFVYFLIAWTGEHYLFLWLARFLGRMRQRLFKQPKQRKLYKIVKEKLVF

[F][Be-]([F])[F] [BeF3−]
inhibition at 1 mM ([1]; 1 mM BeF3−, 1 mM ATP, phosphate analogue): inhibited by the inhibitors BeF3^− and NaVO4^−

NCCCNCCCCNCCCN [spermine]
ATPase stimulation [2]: ATPase activity of purified Ypk9 is stimulated by the polyamine spermine (SPM) | cryo-EM structure (E2.Pi-SPM 3.5 Å; E2.Pi-AlF/SPM 3.4 Å; E2P* 3.7 Å) [3]: The cleft harbors an additional, elongated density compatible with the presence of SPM

[O]=[V]([OH])([OH])[OH] [NaVO4−]
inhibition at 1 mM ([1]; 1 mM NaVO4, 1 mM ATP): inhibited by the inhibitors BeF3^− and NaVO4^−

From article PMC8233418, “Structure and transport mechanism of P5B-ATPases” (Nature Communications, 2021)
